# Key:
# Type in all cases: biochemical
# [1] = target: T1, SIK3 (QSK) (SEQ ID NO: 24) (Homo sapiens, UniProt Q9Y2K2); assay: Protein kinase assay, SIK3; conditions: read-out: SIK3 (QSK) (SEQ ID NO: 24) kinase inhibition result
# T1 construct: Reaction Biology Corporation (assay service, HotSpot panel)
# Description: (§1) Briefly, specific kinase/substrate pairs along with required cofactors were prepared in reaction buffer; 20 mM Hepes (pH 7.5), 10 mMmgCl2, 1 mM EGTA, 0.02% Brij35, 0.02 mg/ml BSA, 0.1 mM Na3VO4, 2 mM DTT, 1% DMSO. Compounds were delivered into the reaction, followed ˜20 min later by addition of a mixture of ATP (Sigma) and 33P ATP (PerkinElmer) to a final concentration of 10 μM. […] IC50 values and curve fits were obtained using Prism (GraphPad Software). Kinome tree representations were prepared using Kinome Mapper (http://www.reactionbiology.com/apps/kinome/mapper/LaunchKinome.htm).
# [2] = target: SIK2 (QIK) (SEQ ID NO: 11) (Homo sapiens, UniProt Q9H0K1); assay: SIK2 kinase assay (radiometric, 10 μM ATP); conditions: read-out: SIK2 (QIK) (SEQ ID NO: 11) kinase inhibition result
# SIK2 (QIK) (SEQ ID NO: 11), sequence (Q9H0K1 whole entry): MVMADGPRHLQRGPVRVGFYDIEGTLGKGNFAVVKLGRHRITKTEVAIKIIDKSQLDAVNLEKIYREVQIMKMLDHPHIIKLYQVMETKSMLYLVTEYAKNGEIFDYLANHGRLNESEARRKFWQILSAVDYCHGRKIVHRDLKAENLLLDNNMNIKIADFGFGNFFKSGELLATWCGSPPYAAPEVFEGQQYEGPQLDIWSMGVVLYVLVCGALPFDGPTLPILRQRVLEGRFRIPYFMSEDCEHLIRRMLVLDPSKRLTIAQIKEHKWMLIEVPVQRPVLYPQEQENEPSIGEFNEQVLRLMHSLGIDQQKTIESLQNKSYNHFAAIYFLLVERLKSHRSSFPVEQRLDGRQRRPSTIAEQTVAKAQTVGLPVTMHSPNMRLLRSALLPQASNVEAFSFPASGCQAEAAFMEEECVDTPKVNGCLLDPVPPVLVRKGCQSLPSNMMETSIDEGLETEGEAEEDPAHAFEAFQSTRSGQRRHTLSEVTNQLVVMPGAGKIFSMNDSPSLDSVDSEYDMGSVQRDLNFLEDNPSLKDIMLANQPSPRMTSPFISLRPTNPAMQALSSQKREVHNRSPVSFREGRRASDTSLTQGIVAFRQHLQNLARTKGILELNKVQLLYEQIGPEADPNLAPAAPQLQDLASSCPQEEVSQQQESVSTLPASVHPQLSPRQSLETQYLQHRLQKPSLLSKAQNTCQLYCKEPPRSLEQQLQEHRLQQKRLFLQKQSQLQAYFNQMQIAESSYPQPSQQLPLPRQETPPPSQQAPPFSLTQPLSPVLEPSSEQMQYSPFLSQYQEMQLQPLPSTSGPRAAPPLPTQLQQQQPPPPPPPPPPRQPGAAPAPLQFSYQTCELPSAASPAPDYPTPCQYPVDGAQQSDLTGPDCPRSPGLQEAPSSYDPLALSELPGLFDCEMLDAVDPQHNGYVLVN
# Description: Procedure: Enzyme was incubated with substrate peptide in reaction buffer in the presence and absence of test compounds or Staurosporine. All additions were done on ice, followed by the addition of ATP mix. Wells were uniformly mixed using an Eppendorff plate shaker and incubated at 30° C. for 20 min, and stopped by the addition of 5 μL of 3% phosphoric acid. Volume was increased to 100 μL by adding 0.8% phosphoric acid which was then transferred to PC filter mats (Millipore), pre-equilibrated with 70% ethanol and water. Plates were washed thrice with 100 μL 0.8% phosphoric acid and dried for an hour at 60° C.
# SIK1 (SEQ ID NO: 10) = target: T2, SIK1 (SEQ ID NO: 10) (Homo sapiens, UniProt P57059); assay: Protein kinase assay, SIK1; conditions: read-out: SIK1 (SEQ ID NO: 10) kinase inhibition result
# T2 construct: Reaction Biology Corporation (assay service, HotSpot panel)
# T2 sequence (P57059 whole entry): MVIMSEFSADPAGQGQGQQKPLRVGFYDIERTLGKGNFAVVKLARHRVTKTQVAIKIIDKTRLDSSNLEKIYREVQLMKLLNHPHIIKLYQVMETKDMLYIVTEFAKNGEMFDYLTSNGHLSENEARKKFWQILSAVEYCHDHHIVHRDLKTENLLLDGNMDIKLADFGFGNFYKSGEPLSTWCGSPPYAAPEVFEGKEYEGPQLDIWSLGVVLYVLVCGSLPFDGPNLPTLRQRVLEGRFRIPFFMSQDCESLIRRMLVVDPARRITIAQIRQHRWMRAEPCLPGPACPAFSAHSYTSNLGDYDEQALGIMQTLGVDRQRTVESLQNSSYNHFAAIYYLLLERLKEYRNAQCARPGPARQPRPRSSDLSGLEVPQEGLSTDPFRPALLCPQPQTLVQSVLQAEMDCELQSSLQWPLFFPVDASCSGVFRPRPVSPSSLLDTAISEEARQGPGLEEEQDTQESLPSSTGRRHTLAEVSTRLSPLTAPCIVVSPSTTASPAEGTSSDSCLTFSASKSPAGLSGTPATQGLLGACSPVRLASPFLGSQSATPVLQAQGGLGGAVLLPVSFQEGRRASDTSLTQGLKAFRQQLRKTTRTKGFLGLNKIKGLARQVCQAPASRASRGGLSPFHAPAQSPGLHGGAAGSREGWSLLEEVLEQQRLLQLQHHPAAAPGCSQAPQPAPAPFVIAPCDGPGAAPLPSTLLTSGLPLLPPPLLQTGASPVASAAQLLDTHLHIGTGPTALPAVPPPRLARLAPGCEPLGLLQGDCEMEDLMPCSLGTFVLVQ
# Description: as §1
# T1 sequence (Q9Y2K2 whole entry): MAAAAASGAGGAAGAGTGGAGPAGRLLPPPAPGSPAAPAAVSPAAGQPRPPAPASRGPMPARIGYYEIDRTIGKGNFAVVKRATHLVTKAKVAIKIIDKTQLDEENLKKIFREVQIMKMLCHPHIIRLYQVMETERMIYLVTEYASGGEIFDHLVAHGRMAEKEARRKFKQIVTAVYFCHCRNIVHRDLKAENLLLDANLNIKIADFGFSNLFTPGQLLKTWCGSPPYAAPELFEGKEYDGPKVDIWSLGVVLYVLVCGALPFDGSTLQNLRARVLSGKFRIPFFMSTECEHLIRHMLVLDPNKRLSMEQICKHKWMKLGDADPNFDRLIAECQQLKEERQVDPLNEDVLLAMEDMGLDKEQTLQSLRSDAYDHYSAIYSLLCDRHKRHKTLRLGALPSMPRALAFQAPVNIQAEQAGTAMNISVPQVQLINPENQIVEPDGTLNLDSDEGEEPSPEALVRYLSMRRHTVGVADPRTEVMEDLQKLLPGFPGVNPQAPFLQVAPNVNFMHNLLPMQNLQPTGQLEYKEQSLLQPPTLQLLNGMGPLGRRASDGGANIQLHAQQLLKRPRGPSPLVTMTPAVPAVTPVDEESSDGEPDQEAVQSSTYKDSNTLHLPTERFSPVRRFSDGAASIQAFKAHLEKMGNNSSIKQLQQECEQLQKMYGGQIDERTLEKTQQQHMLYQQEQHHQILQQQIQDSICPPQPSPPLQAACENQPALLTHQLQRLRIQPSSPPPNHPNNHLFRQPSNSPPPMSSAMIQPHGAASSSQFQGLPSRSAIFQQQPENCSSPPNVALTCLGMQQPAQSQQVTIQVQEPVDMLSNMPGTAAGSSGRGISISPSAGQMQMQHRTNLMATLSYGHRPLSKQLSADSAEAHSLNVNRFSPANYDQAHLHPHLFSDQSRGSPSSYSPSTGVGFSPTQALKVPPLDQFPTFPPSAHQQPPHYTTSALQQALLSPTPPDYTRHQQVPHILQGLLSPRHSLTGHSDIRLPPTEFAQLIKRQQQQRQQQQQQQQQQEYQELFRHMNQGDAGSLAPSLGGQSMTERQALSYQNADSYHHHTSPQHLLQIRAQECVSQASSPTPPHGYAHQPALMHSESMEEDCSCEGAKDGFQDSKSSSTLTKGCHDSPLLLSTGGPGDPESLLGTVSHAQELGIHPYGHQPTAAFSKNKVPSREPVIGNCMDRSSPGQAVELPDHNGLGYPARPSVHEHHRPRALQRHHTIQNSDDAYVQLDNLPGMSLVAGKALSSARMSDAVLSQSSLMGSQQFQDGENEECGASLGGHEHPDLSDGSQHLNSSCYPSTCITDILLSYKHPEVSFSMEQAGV
IC50 [1] [nM],IC50 [2] [nM],IC50 (SIK1 (SEQ ID NO: 10)) [nM],Compound
> 1000,> 100,> 100,"COc1cc(Cl)ccc1-c1n[nH]c2nccc(-c3ccsc3)c12 [Example 6, 3-(4-chloro-2-methoxyphenyl)-4-(thiophen-3-yl)-1H-pyrazolo[3,4-b]pyridine]"
–,> 100,> 100,"COc1ncccc1-c1c[nH]c2nccc(-c3ccsc3)c12 [Example 36, 3-(2-methoxypyridin-3-yl)-4-(thiophen-3-yl)-1H-pyrrolo[2,3-b]pyridine]"
–,> 100,> 1000,"COc1ccc(-c2n[nH]c3nccc(-c4ccsc4)c23)c(OC)c1 [Example 87, 3-(2,4-dimethoxyphenyl)-4-(thiophen-3-yl)-1H-pyrazolo[3,4-b]pyridine]"
> 1000,> 1000,> 1000,"O=S(=O)(c1ccc(-c2c[nH]c3nccc(-c4ccsc4)c23)cc1)N1CCC1 [Example 96, 3-(4-(azetidin-1-ylsulfonyl)phenyl)-4-(thiophen-3-yl)-1H-pyrrolo[2,3-b]pyridine]"
> 1000,> 1000,> 1000,"O=S(=O)(c1cccc(-c2c[nH]c3nccc(-c4ccsc4)c23)c1)N1CCCC1 [Example 97, 3-(3-(pyrrolidin-1-ylsulfonyl)phenyl)-4-(thiophen-3-yl)-1H-pyrrolo[2,3-b]pyridine]"
> 1000,> 1000,> 1000,"O=S(=O)(c1ccc(-c2c[nH]c3nccc(-c4ccsc4)c23)cc1)N1CCCC1 [Example 98, 3-(4-(pyrrolidin-1-ylsulfonyl)phenyl)-4-(thiophen-3-yl)-1H-pyrrolo[2,3-b]pyridine]"
> 1000,> 100,> 1000,"Cc1ccc(-c2ccnc3[nH]cc(-c4cccc(F)c4Cl)c23)o1 [Example 116, 3-(2-chloro-3-fluorophenyl)-4-(5-methylfuran-2-yl)-1H-pyrrolo[2,3-b]pyridine]"

# The next lines start with the molecule.
Compound,IC50 [1] [nM],IC50 [2] [nM],IC50 (SIK1 (SEQ ID NO: 10)) [nM]
"Fc1ccc(-c2n[nH]c3nccc(-c4ccsc4)c23)c(F)c1 [Example 2, 3-(2,4-difluorophenyl)-4-(thiophen-3-yl)-1H-pyrazolo[3,4-b]pyridine]",> 1000,> 100,> 1000
"CCOc1ccccc1-c1n[nH]c2nccc(-c3ccsc3)c12 [Example 5, 3-(2-ethoxyphenyl)-4-(thiophen-3-yl)-1H-pyrazolo[3,4-b]pyridine]",< 100,> 100,> 1000
"COc1ccccc1-c1c[nH]c2nccc(-c3ccsc3)c12 [Example 17, 3-(2-methoxyphenyl)-4-(thiophen-3-yl)-1H-pyrrolo[2,3-b]pyridine]",> 100,> 100,> 100
"c1cnc(N2CCOCC2)c(-c2c[nH]c3nccc(-c4ccsc4)c23)c1 [Example 37, 4-(3-(4-(thiophen-3-yl)-1H-pyrrolo[2,3-b]pyridin-3-yl)pyridin-2-yl)morpholine]",–,> 100,> 100
"CCN(CC)S(=O)(=O)c1ccccc1-c1c[nH]c2nccc(-c3ccsc3)c12 [Example 95, N,N-diethyl-2-(4-(thiophen-3-yl)-1H-pyrrolo[2,3-b]pyridin-3-yl)benzenesulfonamide]",> 1000,> 1000,> 1000
"COc1ccccc1-c1c[nH]c2ncc(-c3ccc(C)o3)cc12 [Example 115, 3-(2-methoxyphenyl)-5-(5-methylfuran-2-yl)-1H-pyrrolo[2,3-b]pyridine]",> 1000,< 100,> 100
"COc1c(F)cccc1-c1c[nH]c2ncc(-c3ccsc3)cc12 [Example 125, 3-(3-fluoro-2-methoxyphenyl)-5-(thiophen-3-yl)-1H-pyrrolo[2,3-b]pyridine]",–,< 100,> 1000
"COc1c(F)cc(F)cc1-c1c[nH]c2ncc(-c3cnn(C4CCN(S(C)(=O)=O)CC4)c3)cc12 [Example 214, 3-(3,5-difluoro-2-methoxyphenyl)-5-(1-(1-(methylsulfonyl)piperidin-4-yl)-1H-pyrazol-4-yl)-1H-pyrrolo[2,3-b]pyridine]",–,–,> 1000
